Measurements taken from US20140303164A1, “THERAPEUTIC COMPOUNDS” (Gilead Sciences, Inc., priority 2013, published 2014).

Experiments:
[1] = tested on: HIV-IIIb; test: Test A: Antiviral Assay in MT4 Cells; type: cell-based, HIV-1; conditions: Human immunodeficiency virus 1, IIIB, MT4, 120 h; for inhibition at 0.2 µM: read-out: % inhibition at 0.2 μM; for inhibition at 2 µM: read-out: % inhibition at 2 μM
Protocol: Test A: Antiviral Assay in MT4 Cells
MT-4 cells were next mixed with HIV-IIIb at an m.o.i of 0.003 for 1 hour, after which time 35 μL of virus/cell mixture (2000 cells) was immediately added to each well containing 40 μL of diluted compound. The plates were then incubated at 37° C. for 5 days. […] Cell lysis was carried out by incubating at room temperature for 10 min and then chemiluminescence was read.

[2] = Test B: Cytotoxicity Assay; type: cell-based; conditions: human, uninfected MT-4 cells, same protocol as Test A
Summary of the method: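 Uninfected MT-4 cells (2000 per well) incubated with diluted compound at 37° C. for 5 days, following the antiviral protocol without HIV-IIIb.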

SMILES | inhibition at 0.2 µM [1] [%] | inhibition at 2 µM [1] [%] | CC50 at 5 days [2] [µM]
Cn1nc(NS(C)(=O)=O)c2cccc(-c3ccc(C#CC(C)(C)CO)nc3[C@H](Cc3cc(F)cc(F)c3)NC(=O)Cn3nc(C(F)(F)F)c4c3C(F)(F)[C@@H]3C[C@H]43)c21 [Compound 63, 2-((3bS,4aR)-5,5-difluoro-3-(trifluoromethyl)-3b,4,4a,5-tetrahydro-1H-cyclopropa[3,4]cyclopenta[1,2-c]pyrazol-1-yl)-N—((S)-2-(3,5-difluorophenyl)-1-(6-(4-hydroxy-3,3-dimethylbut-1-yn-1-yl)-3-(1-methyl-3-(methylsulfonamido)-1H-indazol-7-yl)pyridin-2-yl)ethyl)acetamide] | 91 | 91 | 8.89
Cn1nc(NS(C)(=O)=O)c2cccc(-c3ccc(C#CC(C)(C)O)nc3[C@H](Cc3cc(F)cc(F)c3)NC(=O)Cn3nc(C(F)F)c4c3C3CC3CC4)c21 (stereo partly drawn) [Compound 43, 2-(3-(difluoromethyl)-5,5a,6,6a-tetrahydrocyclopropa[g]indazol-1(4H)-yl)-N—((S)-2-(3,5-difluorophenyl)-1-(6-(3-hydroxy-3-methylbut-1-yn-1-yl)-3-(1-methyl-3-(methylsulfonamido)-1H-indazol-7-yl)pyridin-2-yl)ethyl)acetamide] | 100 | 100 | 15.4
Cn1nc(NC(=O)C(F)(F)F)c2c(Cl)ccc(-c3ccc(C#CC(C)(C)O)nc3[C@H](Cc3cc(F)cc(F)c3)NC(=O)Cn3nc(C(F)F)c4c3C(F)(F)[C@@H]3C[C@H]43)c21 [Compound 98, N-(4-chloro-7-(2-((S)-1-(2-((3bS,4aR)-3-(difluoromethyl)-5,5-difluoro-3b,4,4a,5-tetrahydro-1H-cyclopropa[3,4]cyclopenta[1,2-c]pyrazol-1-yl)acetamido)-2-(3,5-difluorophenyl)ethyl)-6-(3-hydroxy-3-methylbut-1-yn-1-yl)pyridin-3-yl)-1-methyl-1H-indazol-3-yl)-2,2,2-trifluoroacetamide] | 100 | 100 | 8.41
Cn1nc(NS(C)(=O)=O)c2c(Cl)ccc(-c3ccc(C#CC(C)(C)O)nc3[C@H](Cc3cc(F)cc(F)c3)NC(=O)Cn3nc(C(F)F)c4c3C(F)(F)CCC4(F)F)c21 [Compound 82, (S)—N-(1-(3-(4 chloro-1-methyl-3-(methylsulfonamido)-1H-indazol-7-yl)-6-(3-hydroxy-3-methylbut-1-yn-1-yl)pyridin-2-yl)-2-(3,5-difluorophenyl)ethyl)-2-(3-(difluoromethyl)-4,4,7,7-tetrafluoro-4,5,6,7-tetrahydro-1H-indazol-1-yl)acetamide] | 99 | 99 | 9.7
Cc1c(-c2ccc(C#CC(C)(C)O)nc2[C@H](Cc2cc(F)cc(F)c2)NC(=O)Cn2nc(C(F)F)c3c2C(F)(F)[C@@H]2C[C@H]32)ccc2n[nH]c(=O)n12 [Compound 38, 2-((3b-S,4aR)-3-(difluoromethyl)-5,5-difluoro-3b,4,4a,5-tetrahydro-1H-cyclopropa[3,4]cyclopenta[1,2-c]pyrazol-1-yl)-N—((S)-2-(3,5-difluorophenyl)-1-(6-(3-hydroxy-3-methylbut-1-yn-1-yl)-3-(5-methyl-3-oxo-2,3-dihydro-[1,2,4]triazolo[4,3-a]pyridin-6-yl)pyridin-2-yl)ethyl)acetamide] | 96 | 96 | 13.5
Cn1nc(N)c2cccc(-c3ccc(C#CC(C)(C)O)nc3[C@H](Cc3cc(F)cc(F)c3)NC(=O)Cn3nc(C(F)F)c4c3C(F)(F)CCC4(F)F)c21 [Compound 31, (S)—N-(1-(3-(3-amino-1-methyl-1H-indazol-7-yl)-6-(3-hydroxy-3-methylbut-1-yn-1-yl)pyridin-2-yl)-2-(3,5-difluorophenyl)ethyl)-2-(3-(difluoromethyl)-4,4,7,7-tetrafluoro-4,5,6,7-tetrahydro-1H-indazol-1-yl)acetamide] | 89 | 89 | 8.03
Cn1nc(NS(C)(=O)=O)c2cccc(-c3ccc(C#CC(C)(C)N)nc3[C@H](Cc3cc(F)cc(F)c3)NC(=O)Cn3nc(C(F)(F)F)c4c3C(F)(F)[C@@H]3C[C@H]43)c21 [Compound 104, N—((S)-1-(6-(3-amino-3-methylbut-1-yn-1-yl)-3-(1-methyl-3-(methylsulfonamido)-1H-indazol-7-yl)pyridin-2-yl)-2-(3,5-difluorophenyl)ethyl)-2-((3bS,4aR)-5,5-difluoro-3-(trifluoromethyl)-3b,4,4a,5-tetrahydro-1H-cyclopropa[3,4]cyclopenta[1,2-c]pyrazol-1-yl)acetamide] | 100 | 100 | 7.46
CC(C)(O)C#Cc1ccc(-c2ccc(Cl)n3c(NS(C)(=O)=O)nnc23)c([C@H](Cc2cc(F)cc(F)c2)NC(=O)Cn2nc(C(F)F)c3c2C(F)(F)[C@@H]2C[C@H]32)n1 [Compound 110E, N—((S)-1-(3-(5-chloro-3-(methylsulfonamido)-[1,2,4]triazolo[4,3-a]pyridin-8-yl)-6-(3-hydroxy-3-methylbut-1-yn-1-yl)pyridin-2-yl)-2-(3,5-difluorophenyl)ethyl)-2-((3b-S,4aR)-3-(difluoromethyl)-5,5-difluoro-3b,4,4a,5-tetrahydro-1H-cyclopropa[3,4]cyclopenta[1,2-c]pyrazol-1-yl)acetamide] | 15 | 98 | > 53.2
Cn1nc(NS(C)(=O)=O)c2cccc(-c3ccc(C#CC(C)(C)O)nc3[C@H](Cc3cc(F)cc(F)c3)NC(=O)Cn3nc(C(F)F)c4c3C(F)(F)CCC4(F)F)c21 [Compound 42, (S)-2-(3-(difluoromethyl)-4,4,7,7-tetrafluoro-4,5,6,7-tetrahydro-1H-indazol-1-yl)-N-(2-(3,5-difluorophenyl)-1-(6-(3-hydroxy-3-methylbut-1-yn-1-yl)-3-(1-methyl-3-(methylsulfonamido)-1H-indazol-7-yl)pyridin-2-yl)ethyl)acetamide] | 100 | 100 | 11.8
Cn1nc(NS(C)(=O)=O)c2c(Cl)ccc(-c3cc(C(N)=O)cnc3[C@H](Cc3cc(F)cc(F)c3)NC(=O)Cn3nc(C(F)F)c4c3C(F)(F)[C@@H]3C[C@H]43)c21 [Compound 186D, 5-(4-chloro-1-methyl-3-(methylsulfonamido)-1H-indazol-7-yl)-6-((S)-1-(2-((3bS,4aR)-3-(difluoromethyl)-5,5-difluoro-3b,4,4a,5-tetrahydro-1H-cyclopropa[3,4]cyclopenta[1,2-c]pyrazol-1-yl)acetamido)-2-(3,5-difluorophenyl)ethyl)nicotinamide] | 87 | 87 | 1.52
Cn1nc(NS(C)(=O)=O)c2cccc(-c3cnc(C#CC(C)(C)O)nc3[C@H](Cc3cc(F)cc(F)c3)NC(=O)Cn3nc(C(F)F)c4c3C(F)(F)CCC4(F)F)c21 [Compound 40, (S)-2-(3-(difluoromethyl)-4,4,7,7-tetrafluoro-4,5,6,7-tetrahydro-1H-indazol-1-yl)-N-(2-(3,5-difluorophenyl)-1-(2-(3-hydroxy-3-methylbut-1-yn-1-yl)-5-(1-methyl-3-(methylsulfonamido)-1H-indazol-7-yl)pyrimidin-4-yl)ethyl)acetamide] | 87 | 87 | 8.72
Cn1nc(NS(N)(=O)=O)c2c(Cl)ccc(-c3ccc(C#CC(C)(C)O)nc3[C@H](Cc3cc(F)cc(F)c3)NC(=O)Cn3nc(C(F)F)c4c3C(F)(F)[C@@H]3C[C@H]43)c21 [Compound 70, N—((S)-1-(3-(4-chloro-1-methyl-3-(sulfamoylamino)-1H-indazol-7-yl)-6-(3-hydroxy-3-methylbut-1-yn-1-yl)pyridin-2-yl)-2-(3,5-difluorophenyl)ethyl)-2-((3b-S,4aR)-3-(difluoromethyl)-5,5-difluoro-3b,4,4a,5-tetrahydro-1H-cyclopropa[3,4]cyclopenta[1,2-c]pyrazol-1-yl)acetamide] | 94 | 94 | 9.98
Cn1nc(NS(C)(=O)=O)c2c(Cl)ccc(-c3cc(-c4cccnc4)cnc3[C@H](Cc3cc(F)cc(F)c3)NC(=O)Cn3nc(C(F)F)c4c3C(F)(F)[C@@H]3C[C@H]43)c21 [Compound 185C, N—((S)-1-(5-(4-chloro-1-methyl-3-(methylsulfonamido)-1H-indazol-7-yl)-[3,3′-bipyridin]-6-yl)-2-(3,5-difluorophenyl)ethyl)-2-((3bS,4aR)-3-(difluoromethyl)-5,5-difluoro-3b,4,4a,5-tetrahydro-1H-cyclopropa[3,4]cyclopenta[1,2-c]pyrazol-1-yl)acetamide] | 89 | 89 | 18.2
Cc1n[nH]c2cccc(-c3ccc(C#CC(C)(C)O)nc3[C@H](Cc3cc(F)cc(F)c3)NC(=O)Cn3nc(C(F)(F)F)c4c3C(F)(F)[C@@H]3C[C@H]43)c12 [Compound 79, 2-((3bS,4aR)-5,5-difluoro-3-(trifluoromethyl)-3b,4,4a,5-tetrahydro-1H-cyclopropa[3,4]cyclopenta[1,2-c]pyrazol-1-yl)-N—((S)-2-(3,5-difluorophenyl)-1-(6-(3-hydroxy-3-methylbut-1-yn-1-yl)-3-(3-methyl-1H-indazol-4-yl)pyridin-2-yl)ethyl)acetamide] | 100 | 100 | 4.72
